# Like-named read-outs stand apart in the source and are kept apart here. Marks after values point to notes of the source that are not given here.
# Test system: human subjects with migraine and tension-type headaches, jaw pain
# Type: in vivo
# Settings: for Est. Rate / Est. Total Dose / Number of Doses / Single Dose Duration / Total Dose / Total Treatment Time: self-selected effective dose; for 24-hr. Recur Rate / After Effects / Symptom Free, Minutes Post-Treatment / Symptom, Relief, Minutes Post-Treatment: moderate
# Source text: The test device was a hand-held, multi-dose, disposable, dispenser that was approximately 3 to 4 inches long and 6/8 to ⅞ inches in diameter constructed as described above. The device consisted of a plastic twist-top flow regulator mounted on top of a pressurized steel cartridge containing liquid carbon dioxide. The tip of the flow regulator has a nosepiece that is the optimal size and configuration to place against and seal off a nostril for administration of the gas. In a number of subjects, the effective nasal and oral carbon dioxide flow rates, and maximum tolerable nasal and oral flow rates, were measured using a laboratory apparatus. This apparatus consisted of a flow regulator connected via tubing to a flow meter and a large tank of carbon dioxide. These flow data were used, together with the number of seconds gas was administered during therapy, to calculate the estimated dose of gas in milliliters.
# Of the total of 15 subjects included in the analysis, 11 used the treatment for 35 headaches and 9 subjects used it for 9 allergy attacks. […] subjects treated both headache and allergy but on different days. The subjects included adults, elderly, and children of both sexes in good general health, having mild, moderate, and severe headaches or having allergies to plant, animal, or airborne allergens. The device was used to treat migraine and tension-type headaches, jaw pain, and allergies (allergic rhinitis, with symptoms that included sinus congestion, sneezing, and itchy throat and eyes). There was no limitation on the duration of symptoms before treatment with the device. Subjects with no prior use of the device and those who have used it (to treat allergy symptoms) previously were included.
# Carbon dioxide (100%) was administered nasally by the subject for a few seconds via a nostril to fill the nasal passages while holding their breath, or taking breaths of room air occasionally if the dose was lengthy. The gas exited the other nostril. Such nasal administration is similar to presently marketed nasal inhalers except that the administered gas was not inhaled. […] Subjects took as many doses as they needed for relief. It is important to note that there were no number of doses, duration of dose, time between doses, or gas flow rate specified for the user. Subjects chose their own regimen for symptom relief. Similarly, in medical practice today, gas therapy is a “titrate to effect” therapy without a specified dosage.
# The International Headache Society (IHS) divides headache intensity into three categories: mild, moderate, and severe. The rating of the intensity level depends on the extent to which the headache interferes with the ability to function. […] The IHS uses headache relief at two hours as its primary outcome measure for present-day headache drug studies. Since therapy of the present invention acts much faster than present-day drugs, the primary outcome measure selected for this analysis was headache relief at 30 minutes. Each of the headache outcome measures used for this analysis is as follows: • Headache relief efficacy at 1, 5, 15, and 30 minutes post-treatment—headache relief efficacy is obtained when a pre-treatment headache severity of mild, moderate, or severe severity is improved to a post-treatment severity of none, mild, or moderate respectively. • Headache free efficacy at 1, 5, 15, and 30 minutes post-treatment—headache free efficacy is obtained when a pre-treatment headache of mild, moderate, or severe severity is improved to a post-treatment severity of none. • Headache recurrence within 24 hours post-treatment—recurrence within 24 hours is defined as no or mild headache severity after treatment that then worsened to moderate or severe headache severity within 24 hours after treatment with no use of rescue medication before the worsening. • Safety parameter—safety is defined as no adverse after-effects of treatment.
# [1] = Headache-All, mild, severe, 1 min post-treatment
# [2] = Headache-All, mild, severe, 5 min post-treatment
# [3] = Headache-All, mild, severe, 15 min post-treatment
# [4] = Headache-All, mild, severe, 30 min post-treatment
# [5] = Headache-All, severe - IHS criteria
# [6] = Headache-All, severe - IHS criteria, 1 min post-treatment
# [7] = Headache-All, severe - IHS criteria, 5 min post-treatment
# [8] = Headache-All, severe - IHS criteria, 15 min post-treatment
# [9] = Headache-All, severe - IHS criteria, 30 min post-treatment
# [10] = Migraine, mild, severe, 1 min post-treatment
# [11] = Migraine, mild, severe, 5 min post-treatment
# [12] = Migraine, mild, severe, 15 min post-treatment
# [13] = Migraine, mild, severe, 30 min post-treatment
# [14] = Migraine, severe - IHS criteria
# [15] = Migraine, severe - IHS criteria, 1 min post-treatment
# [16] = Migraine, severe - IHS criteria, 5 min post-treatment
structure (smiles),measurement,setting,value
O=C=O [carbon dioxide],headache recurrence 24 hours post-treatment,35 headaches,no instances of headache recurrence
same,Est. Rate,Headache-All,4 mL/s
same,Est. Total Dose,Headache-All,124 mL
same,Number of Doses,Headache-All,2 #
same,Single Dose Duration,Headache-All,15 s
same,Total Dose,Headache-All,32 s
same,Total Treatment Time,Headache-All,7 min
same,24-hr. Recur Rate,"Headache-All, mild, severe",0%
same,After Effects,"Headache-All, mild, severe",0%
same,"Symptom Free, Minutes Post-Treatment",[1],31%
same,"Symptom, Relief, Minutes Post-Treatment",[1],31%
same,"Symptom Free, Minutes Post-Treatment",[2],60%
same,"Symptom, Relief, Minutes Post-Treatment",[2],63%
same,"Symptom Free, Minutes Post-Treatment",[3],74%
same,"Symptom, Relief, Minutes Post-Treatment",[3],86%
same,"Symptom Free, Minutes Post-Treatment",[4],80%
same,"Symptom, Relief, Minutes Post-Treatment",[4],94%
same,24-hr. Recur Rate,[5],0%
same,After Effects,[5],0%
same,"Symptom Free, Minutes Post-Treatment",[6],16%
same,"Symptom, Relief, Minutes Post-Treatment",[6],16%
same,"Symptom Free, Minutes Post-Treatment",[7],52%
same,"Symptom, Relief, Minutes Post-Treatment",[7],52%
same,"Symptom Free, Minutes Post-Treatment",[8],72%
same,"Symptom, Relief, Minutes Post-Treatment",[8],72%
same,"Symptom Free, Minutes Post-Treatment",[9],80%
same,"Symptom, Relief, Minutes Post-Treatment",[9],84%
same,Est. Rate,Migraine-All,3 mL/s
same,Est. Total Dose,Migraine-All,158 mL
same,Number of Doses,Migraine-All,2 #
same,Single Dose Duration,Migraine-All,29 s
same,Total Dose,Migraine-All,57 s
same,Total Treatment Time,Migraine-All,15 min
same,Est. Rate,Migraine-Mild,3 mL/s
same,Est. Total Dose,Migraine-Mild,82 mL
same,Number of Doses,Migraine-Mild,1 #
same,Single Dose Duration,Migraine-Mild,23 s
same,Total Dose,Migraine-Mild,30 s
same,Total Treatment Time,Migraine-Mild,1 min
same,Est. Rate,Migraine-Severe,3 mL/s
same,Est. Total Dose,Migraine-Severe,233 mL
same,Number of Doses,Migraine-Severe,2 #
same,Single Dose Duration,Migraine-Severe,35 s
same,Total Dose,Migraine-Severe,83 s
same,Total Treatment Time,Migraine-Severe,28 min
same,24-hr. Recur Rate,"Migraine, mild, severe",0%
same,After Effects,"Migraine, mild, severe",0%
same,"Symptom Free, Minutes Post-Treatment",[10],60%
same,"Symptom, Relief, Minutes Post-Treatment",[10],60%
same,"Symptom Free, Minutes Post-Treatment",[11],60%
same,"Symptom, Relief, Minutes Post-Treatment",[11],60%
same,"Symptom Free, Minutes Post-Treatment",[12],60%
same,"Symptom, Relief, Minutes Post-Treatment",[12],60%
same,"Symptom Free, Minutes Post-Treatment",[13],90%
same,"Symptom, Relief, Minutes Post-Treatment",[13],90%
same,24-hr. Recur Rate,[14],0%
same,After Effects,[14],0%
same,"Symptom Free, Minutes Post-Treatment",[15],25%
same,"Symptom, Relief, Minutes Post-Treatment",[15],25%
same,"Symptom Free, Minutes Post-Treatment",[16],25%
same,"Symptom, Relief, Minutes Post-Treatment",[16],25%
same,"Symptom Free, Minutes Post-Treatment","Migraine, severe - IHS criteria, 15 min post-treatment",25%
